Source: patent US20250241985A1, “NANOLIPOSOME COMPOSITIONS AND METHODS OF TREATING STROKE” (United States Government As Represented By The Department …, priority 2020, published 2025)

Tests used:
[1] = tested on: human brain microvascular endothelial cells (HBMVECs); test: Viability of human brain microvascular endothelial cells under physoxia/hypoxia, with or without medin (calcein-AM, flow cytometry); type: cell-based; conditions: medin 5 μM, 20 hours; for cell viability under hypoxic condition: hypoxia (1% oxygen)
Experimental: (§1) Methods. Recombinant medin was expressed in Lemo 21 (DE3) cells using POPINS-medin (Karamanova N, et al. J Am Heart Assoc 2020; 9:e014810) and confirmed to have >95% purity by SDS-PAGE. GM1L was prepared from phosphatidylcholine, cholesterol and monosialoganglioside (molar ratios 70:25:5) using lipid hydration method (Karamanova N, et al. J Am Heart Assoc 2020; 9:e014810). Primary human brain microvascular ECs (Lonza, passages 4-8) were exposed for 20 hours to 4 different treatments (vehicle control, medin 5 μM, medin 5 μM+GM1L 300 μg/ml or GM1L 300 μg/ml) under two aerobic conditions: physoxia (5% oxygen) or hypoxia (1% oxygen). Cell viability was assessed using calcein-AM fluorescence (based on principle of intact esterases in viable cells that releases fluorescent calcein) using flow cytometry (measurements expressed relative to control ECs exposed to room air). Gene expression of antioxidant enzymes heme-oxygenase 1 (HO1), NADPH quinone dehydrogenase (NQO1) and superoxide dismutase 1 (SOD1) were measured separately by qPCR on ECs.
Cell viability was assessed using calcein-AM fluorescence using flow cytometry. Measurements are expressed relative to control HBMVECs exposed to room air.

HO-1, NQO1 and SOD1 = test: Gene (qPCR) and protein expression of antioxidant enzymes in endothelial cells; type: cell-based, human; conditions: medin 5 μM, 20 hours
Experimental: as §1
Nrf2 is a transcription factor that is a master regulator of production of antioxidant enzymes and protective mechanisms against hypoxic/ischemic stress and inflammatory stress.

[2] = tested on: stroke injury, preclinical models; conditions: 150 mg/kg of free monosialoganglioside in saline; cited from earlier work

Substance	cell viability under hypoxic condition [1]	cell viability under hypoxic condition ([1]; listed as Medin)	cell viability under physoxic condition ([1]; physoxia (5% oxygen))	antioxidant enzyme gene expression versus control (HO-1, NQO1 and SOD1)	reduction in infarct volume, prior study [2]
medin: 50-amino acid amyloidogenic peptide; recombinant, expressed in Lemo 21 (DE3) cells (RLDKQGNFNAWVAGSYGNDQWLQVDLGSSKEVTGIITQGARNFGSVQFVA; Medin; UniProt Q08431 268-317, looked up)	more so	significant additive adverse effect	reduced viability	did not elicit a change	–
monosialoganglioside	–	–	–	–	6.8%
